Patent US20110207722A1, “TREATMENT OF ANXIETY DISORDERS” (N[…]/S, priority 2008, published 2011)

Test system: Mice
Test: Marble burying test
Type: in vivo, mouse
Details: Compound I 0.05 mg/kg orally 60 min before testing; diazepam 0.03-0.3 mg/kg i.p. 30 min before testing; 30 min test session; n=8
Method: FIGS. 1 and 2 show the effect of the compound exo-7-(8-H-8-aza-bicyclo[3.2.1]oct-3-yloxy)-chromen-2-one (Compound I or Cp I) and diazepam, respectively, in the mouse marble burying test. Compound I (0.05-0.2 mg/kg) was administered orally 60 min before testing. Diazepam (0.1-1 mg/kg) was injected via the intraperitoneal (i.p.) route 30 min before testing. *P<0.05, ***P<0.001 vs. vehicle-treated group (Student's t-test, n=8).
Compound I (0.05 mg/kg) was administered orally 60 min before testing. Diazepam (0.03-0.3 mg/kg) was injected via the intraperitoneal (i.p.) route 30 min before testing. Paroxetine (10 mg/kg, i.p., −30 min) served as a positive control. *P<0.05, **P<0.01 vs. vehicle-treated group (Student's t-test, n=8).
Mice were placed for 30 min in novel cages (one mouse per cage, 20×30 cm) in which there were 20 glass marbles (15 mm in diameter) situated in four rows of five placed on top of 5 cm of sawdust. […]

For `O=c1ccc2ccc(O[C@@H]3C[C@H]4CC[C@@H](C3)N4)cc2o1` [Compound I, exo-7-(8-H-8-aza-bicyclo[3.2.1]oct-3-yloxy)-chromen-2-one], the “effect on the activity of diazepam in the mouse marble burying test (number of glass marbles buried)” value was “augments the activity of diazepam”.
